Reference: patent US20020115689A1, “Combination therapy for treating neurodegenerative disease” (priority 1999, published 2002)

Test system: COX-1 and COX-2
Assay: human whole blood assay (Chan, et al., JPET 290:551-560, 1999) for COX-1 and COX-2 inhibition
Type: cell-based
Details: approximate COX-2 selectivity ratio = IC50 for inhibition of COX-1 divided by IC50 for inhibition of COX-2, human whole blood assay
Excerpt: The ability of a compound to inhibit COX-1 and/or COX-2 may be characterized by reference to a wide variety of assays. […] Moreover, for purposes of this patent application a COX-2 selectivity ratio is defined by the IC50 for the inhibition of COX-1 divided by the IC50 for the inhibition of COX-2 as measured by the Chan, et al., human whole blood assay.

Structure (SMILES)	COX-1/COX-2 ratio of the IC50
Cc1ccc(-c2cc(C(F)(F)F)nn2-c2ccc(S(N)(=O)=O)cc2)cc1 [Celecoxib]	6.5
Cc1ccc(-c2ncc(Cl)cc2-c2ccc(S(C)(=O)=O)cc2)cn1 [Compound 13, 5-chloro-3-(4-(methylsulfonyl)phenyl)-2-(2-methyl-5-pyridinyl)pyridine]	80
COc1ccc2c(c1)c(CC(=O)O)c(C)n2C(=O)c1ccc(Cl)cc1 [Indomethacin]	0.4
Cc1cnc(NC(=O)C2=C(O)c3ccccc3S(=O)(=O)N2C)s1 [Meloxicam]	2.
CCC(=O)NS(=O)(=O)c1ccc(-c2c(-c3ccccc3)noc2C)cc1 [Pericoxib, N-[[4-(5-methyl-3-phenylisoxazol-4-yl)phenyl]sulfonyl]propanamide]	>100
CS(=O)(=O)c1ccc(C2=C(c3ccccc3)C(=O)OC2)cc1 [Rofecoxib, 3-phenyl-4-(4-(methylsulfonyl)phenyl)-2-(5H)-furanone]	35.
